Assay results as given in patent publication US6737383B1, “Herbicidal oxadiazolidines” (priority 1999, dated 2004).

How the values were obtained:
bamyardgrass = experiment: Test B flood test barnyardgrass; assay type: in vivo, Echinochloa crus-galli
Summary of the method: (§1)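 Plants were grown to the 2-leaf stage before treatment with test chemical, then held in a greenhouse for twelve to sixteen days. Injury was visually rated against untreated controls on a 0–10 scale, where 0 is no effect and 10 is complete control.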

pigweed = experiment: Test B pre/postemergence pigweed; assay type: in vivo, Amaranthus retroflexus
Summary of the method: (§2)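 Response is a visual 0-to-10 score relative to untreated plants, where 0 means no effect and 10 means complete control, taken twelve to sixteen days after application. Treatments went onto soil at planting and onto foliage of 1- to 4-leaf plants, using a surfactant-containing non-phytotoxic solvent.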

bedstraw = experiment: Test B pre/postemergence bedstraw; assay type: in vivo, Galium aparine
Summary of the method: as §2

sugar beet = experiment: Test B pre/postemergence sugar beet; assay type: in vivo, Beta vulgaris; conditions: for Plant response rating, Sugarbeets: Rate 250 g/ha
Summary of the method: as §2

velvetleaf = experiment: Test B pre/postemergence velvetleaf; assay type: in vivo, Abutilon theophrasti; conditions: for Plant response rating, Velvetleaf: Rate 250 g/ha
Summary of the method: as §2

soybean = experiment: Test B pre/postemergence soybean; assay type: in vivo, Glycine max
Summary of the method: as §2

cocklebur = experiment: Test B pre/postemergence cocklebur; assay type: in vivo, Xanthium strumarium
Summary of the method: as §2

wheat = experiment: Test B pre/postemergence wheat; assay type: in vivo, Triticum aestivum; conditions: for Plant response rating, Wheat: Rate 250 g/ha
Summary of the method: as §2

smallflower flatsedge = experiment: Test B flood test smallflower flatsedge; assay type: in vivo, Cyperus difformis
Summary of the method: as §1

crabgrass = experiment: Test B pre/postemergence crabgrass; assay type: in vivo, Digitaria sanguinalis
Summary of the method: as §2

wild oat = experiment: Test B pre/postemergence wild oat; assay type: in vivo, Avena fatua; conditions: for Plant response rating, Wild oats: Rate 250 g/ha
Summary of the method: as §2

corn = experiment: Test B pre/postemergence corn; assay type: in vivo, Zea mays
Summary of the method: as §2

purple nutsedge = experiment: Test B pre/postemergence purple nutsedge; assay type: in vivo, Cyperus rotundus
Summary of the method: as §2

surinam grass = experiment: Test B pre/postemergence surinam grass; assay type: in vivo, Brachiaria decumbens
Summary of the method: as §2

blackgrass = experiment: Test B pre/postemergence blackgrass; assay type: in vivo, Alopecurus myosuroides
Summary of the method: as §2

rape = experiment: Test B pre/postemergence rape; assay type: in vivo, Brassica napus
Summary of the method: as §2

[1] = Postemergence, Rate 62 g/ha, scale 0 to 10, 0 is no effect, 10 is complete control
[2] = Rate 500 g/ha, listed under Postemergence (flood test species), scale 0 to 10, 0 no effect, 10 complete control
[3] = Postemergence, Rate 125 g/ha, scale of 0 to 10 where 0 is no effect and 10 is complete control
[4] = Preemergence, Rate 62 g/ha, scale 0 to 10 (0 no effect, 10 complete control)
[5] = Preemergence, Rate 125 g/ha, scale 0 to 10 (0 no effect, 10 complete control)
[6] = Preemergence, Rate 250 g/ha, scale of 0 to 10 where 0 is no effect and 10 is complete control
[7] = Preemergence, Rate 500 g/ha, scale 0 (no effect) to 10 (complete control)
[8] = Rate 62 g/ha, Postemergence, scale of 0 to 10 where 0 is no effect and 10 is complete control
[9] = Rate 250 g/ha, Postemergence, scale 0 to 10, 0 is no effect, 10 is complete control
[10] = Rate 500 g/ha, Postemergence, scale 0 to 10, 0 no effect, 10 complete control
[11] = Preemergence, Rate 125 g/ha, 0 is no effect, 10 is complete control
[12] = Preemergence, scale of 0 to 10 where 0 is no effect and 10 is complete control
[13] = Postemergence, scale 0 to 10, 0 is no effect, 10 is complete control
[14] = Postemergence, Rate 250 g/ha, scale 0 to 10, 0 no effect, 10 complete control

## CCc1noc(C)c1-n1c(=O)on(C(=O)N(c2ccc(F)cc2)C(C)C)c1=O [Compound 101]
bamyardgrass; [1]
  Barnyardgrass plant response rating: 0
bamyardgrass; Rate 125 g/ha, Postemergence section (flood test species), scale 0 to 10, 0 no effect, 10 complete control
  Barnyardgrass plant response rating: 0
bamyardgrass; [2]
  Barnyardgrass plant response rating: 0
bamyardgrass; flood test, listed under Postemergence, Rate 250 g/ha, scale 0 to 10, 0 no effect, 10 complete control
  Barnyardgrass plant response rating: 0
pigweed; [3]
  Redroot pigweed plant response rating: 0
pigweed; [4]
  Redroot pigweed plant response rating: 0
pigweed; [5]
  Plant response rating, Redroot pigweed: 0
pigweed; [6]
  Plant response rating, Redroot pigweed: 0
pigweed; [7]
  Redroot pigweed plant response rating: 0
pigweed; [8]
  Redroot pigweed plant response rating: 0
pigweed; [9]
  Plant response rating, Redroot pigweed: 0
pigweed; [10]
  Redroot pigweed plant response rating: 0
bedstraw; [4]
  Bedstraw plant response rating: 0
bedstraw; [5]
  Plant response rating, Bedstraw: 0
bedstraw; [6]
  Plant response rating, Bedstraw: 0
bedstraw; [7]
  Bedstraw plant response rating: 0
bedstraw; [10]
  Bedstraw plant response rating: 0
Sugar beet; [3]
  Sugarbeets plant response rating: 0
Sugar beet; [4]
  Sugarbeets plant response rating: 0
Sugar beet; [11]
  Sugarbeets plant response rating (0 to 10 scale): 0
Sugar beet; [12]
  Plant response rating, Sugarbeets: 0
Sugar beet; [7]
  Sugarbeets plant response rating: 0
Sugar beet; [8]
  Sugarbeets plant response rating: 0
Sugar beet; [13]
  Plant response rating, Sugarbeets: 0
Sugar beet; [10]
  Sugarbeets plant response rating: 0
velvetleaf; [3]
  Velvetleaf plant response rating: 0
velvetleaf; [4]
  Velvetleaf plant response rating: 0
velvetleaf; [11]
  Velvetleaf plant response rating (0 to 10 scale): 0
velvetleaf; [12]
  Plant response rating, Velvetleaf: 0
velvetleaf; [7]
  Velvetleaf plant response rating: 0
velvetleaf; [8]
  Velvetleaf plant response rating: 0
velvetleaf; [13]
  Plant response rating, Velvetleaf: 0
velvetleaf; [10]
  Velvetleaf plant response rating: 0
soybean; [3]
  Soybean plant response rating: 2
soybean; [4]
  Soybean plant response rating: 0
soybean; [5]
  Plant response rating, Soybean: 0
soybean; [6]
  Plant response rating, Soybean: 0
soybean; [7]
  Soybean plant response rating: 0
soybean; [8]
  Soybean plant response rating: 2
soybean; [9]
  Plant response rating, Soybean: 3
soybean; [10]
  Soybean plant response rating: 3
cocklebur; [3]
  Cocklebur plant response rating: 0
cocklebur; [14]
  Cocklebur plant response rating: 0
cocklebur; [4]
  Cocklebur plant response rating: 0
cocklebur; [5]
  Plant response rating, Cocklebur: 0
cocklebur; [6]
  Plant response rating, Cocklebur: 0
cocklebur; [8]
  Cocklebur plant response rating: 0
cocklebur; [10]
  Cocklebur plant response rating: 0
wheat; [3]
  Wheat plant response rating: 0
wheat; [4]
  Wheat plant response rating: 0
wheat; [11]
  Wheat plant response rating (0 to 10 scale): 0
wheat; [12]
  Plant response rating, Wheat: 0
wheat; [7]
  Wheat plant response rating: 0
wheat; [8]
  Wheat plant response rating: 0
wheat; [13]
  Plant response rating, Wheat: 0
wheat; [10]
  Wheat plant response rating: 0
Smallflower flatsedge; Postemergence (flood test species), Rate 125 g/ha, scale of 0 to 10 where 0 is no effect and 10 is complete control
  S. Flatsedge plant response rating: 0
Smallflower flatsedge; Rate 62 g/ha, Postemergence section, flood test species, scale of 0 to 10 where 0 is no effect and 10 is complete control
  S. Flatsedge plant response rating: 0
Smallflower flatsedge; Rate 250 g/ha, Postemergence (flood test), scale 0 to 10, 0 is no effect, 10 is complete control
  Plant response rating, S. Flatsedge: 0
Smallflower flatsedge; [2]
  S. Flatsedge plant response rating: 0
crabgrass; [3]
  Crabgrass plant response rating: 0
crabgrass; [14]
  Crabgrass plant response rating: 0
crabgrass; [4]
  Crabgrass plant response rating: 0
crabgrass; [5]
  Plant response rating, Crabgrass: 0
crabgrass; [6]
  Plant response rating, Crabgrass: 0
crabgrass; [7]
  Crabgrass plant response rating: 0
crabgrass; [8]
  Crabgrass plant response rating: 0
crabgrass; [10]
  Crabgrass plant response rating: 0
Wild oat; [3]
  Wild oats plant response rating: 0
Wild oat; [4]
  Wild oats plant response rating: 0
Wild oat; [11]
  Wild oats plant response rating (0 to 10 scale): 0
Wild oat; [12]
  Plant response rating, Wild oats: 0
Wild oat; [7]
  Wild oats plant response rating: 0
Wild oat; [8]
  Wild oats plant response rating: 0
Wild oat; [13]
  Plant response rating, Wild oats: 0
Wild oat; [10]
  Wild oats plant response rating: 0
corn; [3]
  Corn plant response rating: 0
corn; [14]
  Corn plant response rating: 0
corn; [4]
  Corn plant response rating: 0
corn; [5]
  Plant response rating, Corn: 0
corn; [6]
  Plant response rating, Corn: 0
corn; [7]
  Corn plant response rating: 0
corn; [8]
  Corn plant response rating: 0
corn; [10]
  Corn plant response rating: 0
Purple nutsedge; [3]
  Nutsedge plant response rating: 0
Purple nutsedge; [14]
  Nutsedge plant response rating: 0
Purple nutsedge; [4]
  Nutsedge plant response rating: 0
Purple nutsedge; [5]
  Plant response rating, Nutsedge: 0
Purple nutsedge; [6]
  Plant response rating, Nutsedge: 0
Purple nutsedge; [7]
  Nutsedge plant response rating: 0
Purple nutsedge; [8]
  Nutsedge plant response rating: 0
Purple nutsedge; [10]
  Nutsedge plant response rating: 0
Surinam grass; [1]
  B. signalgrass plant response rating: 0
Surinam grass; [14]
  B. signalgrass plant response rating: 0
Surinam grass; [4]
  B. signalgrass plant response rating: 0
Surinam grass; [5]
  Plant response rating, B. signalgrass: 0
Surinam grass; [6]
  Plant response rating, B. signalgrass: 0
Surinam grass; [7]
  B. signalgrass plant response rating: 0
Surinam grass; Rate 125 g/ha, Postemergence, scale 0 to 10, 0 no effect, 10 complete control
  B. signalgrass plant response rating: 0
Surinam grass; Rate 500 g/ha, Postemergence, scale of 0 to 10 where 0 is no effect and 10 is complete control
  B. signalgrass plant response rating: 0
blackgrass; [3]
  Blackgrass plant response rating: 0
blackgrass; [14]
  Blackgrass plant response rating: 0
blackgrass; [4]
  Blackgrass plant response rating: 0
blackgrass; [5]
  Plant response rating, Blackgrass: 0
blackgrass; [6]
  Plant response rating, Blackgrass: 0
blackgrass; [7]
  Blackgrass plant response rating: 0
blackgrass; [8]
  Blackgrass plant response rating: 0
blackgrass; [10]
  Blackgrass plant response rating: 0
rape; [3]
  Rape plant response rating: 0
rape; [14]
  Rape plant response rating: 0
rape; [4]
  Rape plant response rating: 0
rape; [5]
  Plant response rating, Rape: 0
rape; [6]
  Plant response rating, Rape: 0
rape; [7]
  Rape plant response rating: 0
rape; [8]
  Rape plant response rating: 0
rape; [10]
  Rape plant response rating: 0
